Data published in patent publication US6083964A, “Optical resolution of racemic aminoalkylpyridine anticonvulsants and (+) aminoalkylpyridine enantiomers as highly potent orally effective anticonvulsant drugs and excitatory amino acid antagonists” (K and K Biosciences, Inc., priority 1999, dated 2000).
Where two headings read alike, the source gives them in different places.

Tests used:
[1] = tested on: pentylenetetrazol (Metrazole) seizure threshold in mice; assay: Timed intravenous Metrazol (PTZ) seizure threshold test in mice, i.p.; assay type: in vivo, mouse; conditions: for amount of PTZ required to produce the twitch and clonus and time to twitch and time to clonus (in words): mice; for time to twitch: control 33.03; for PTZ dose for the clonus component: control 37.60; for time to clonus: control 39.71
Source text: A compound that is active in the MES test and prevents seizure spread, can lower seizure threshold at the same time. Such a compound would have proconvulsant activity while at the same time prevent generalized tonic seizures. […] The timed intravenous pentylenetetrazol (Metrazol) seizure threshold test in mice identifies those MES compounds with proconvulsant potential.
Mice were given the (+) and (-) enantiomers, compounds 1 and 2 in Table 1, intraperitoneally at the ED50 and TD50. At the time of maximal MES activity, an intravenous infusion of 0.5% heparinized solution of pentylenetetrazol (PT2) (0.34 ml/min) was started. The time to the appearance of the first myoclonic jerk (twitch) and the subsequent sustained clonic seizure (clonus) were the measured endpoints. Results were obtained for groups of ten treated and ten saline control mice and converted to the dose in mg/kg of PTZ necessary to produce the two endpoints.
Experiments were performed using three doses of 0, 36 and 149 mg/kg on each of 10 animals per dosage group. The time to "twitch" and the time to "clonus", the two components of the seizure elicited by the infusion of metrazol, were observed.

[2] = tested on: maximal electroshock seizure (MES) in rats; assay: Maximal electroshock seizure (MES) test, rats, p.o.; assay type: in vivo, rat (Sprague-Dawley); conditions: rat, p.o.; for ED50: MES test; for P.I. (protective index, TD50/ED50): MES
Source text: (§1) The (+) AAP enantiomers obtained by optical resolution of racemic AAPs and the resulting highly orally effective anticonvulsant compositions of this invention are useful in the treatment of convulsive disorders. […] A series of (+) AAP enantiomers and (-) AAP enantiomers of this invention has been evaluated for anticonvulsant activity by the intraperitoneal (i.p.) and by the oral (p.o.) route using two standard seizure models in the mouse and in the rat, the maximal electroshock seizure (MES) test and the subcutaneous pentylenetetrazol (Metrazole) seizure threshold (scMet) test. […] The following Table 2 presents the results of these anticonvulsant tests with respect to several (+) and (-) AAP enantiomeric compounds derived from optical resolution of racemic AAPs of the present invention. This Table 2 identifies the specific compounds tested by their chemical name and provides the test model, the route of administration, the animal species used, and the anticonvulsant activity and toxicity in terms of ED50 and TD50 values, (the median effective and toxic dose respectively), when intraperitoneally administered to mice, and when orally administered to rats. The Maximal Electroshock Seizure Test (MES): Maximal electroshock seizures are elicited with a 60 Hz alternating current of 50 mA intensity in mice and about 150 mA intensity in rats (5-7 times that necessary to elicit minimal electroshock seizures), delivered for 0.2 sec via corneal electrodes. A drop of 0.9% saline is instilled in the eye prior to application of the electrodes in order to […]. Abolition of the hind limb tonic extension component of the seizure is defined as protection and results are expressed as number of animals protected/number of animals tested. The Subcutaneous Pentylenetetrazol (Metrazole) Seizure Threshold Test (scMet): A 0.5% solution of 85 mg/kg of pentylenetetrazol is administered subcutaneously in the posterior midline 30 minutes or 4 hours after drug administration to the animal. […] This species will be the subject of the complete anticonvulsant quantification test evaluation as described above, but after oral (gavage) administration of the candidate compound.

[3] = tested on: maximal electroshock seizure (MES) in mice; assay: Maximal electroshock seizure (MES) test, mice, i.p.; assay type: in vivo, mouse (male Carworth Farms #1); conditions: for ED50: MES test; for P.I. (protective index, TD50/ED50): MES
Source text: as §1, with “rats. In mice, i.p.: All compounds are emulsified in 0.5% methylcellulose. The solvent has been tested for anticonvulsant and toxic effects and found to introduce no significant bias into the testing of anticonvulsant activity. The compounds are administered intraperitoneally in a volume of 0.01 ml/gm to male Carworth Farms #1 mice weighing about 20 gm. All compounds are tested at least at three dose levels (30, 100 and 300 mg/kg) at 30 minutes and 4 hours after their administration.” for “rats.”, “Anticonvulsant Quantification in Mice i.p.: The ED50 values are determined in” for “This species will be”, “MES, scMet and rotorod ataxia test. To determine the ED50 values, five logarithmically spaced doses” for “subject”, “the” for “the complete anticonvulsant quantification”, “compound are administered to animals (male Carworth Farms #1 mice) in groups of eight, to cover 0-100% protection, and the dose required to protect 50%” for “evaluation as described above, but after oral (gavage) administration”, “animals (ED50) together with its 95% confidence limits, is determined graphically.” for “candidate compound.”

Row | SMILES | amount of PTZ required to produce the twitch and clonus and time to twitch and time to clonus (in words) [1] | ED50 ([2]; listed as (1) (-) Enantiomer) | P.I. (protective index, TD50/ED50) ([2]; listed as (1) (-) Enantiomer) | ED50 ([3]; listed as (1) (-) Enantiomer) | P.I. (protective index, TD50/ED50) ([3]; listed as (1) (-) Enantiomer) | time to twitch ([1]; 36 mg/kg dosage group) | PTZ dose for the clonus component ([1]; 36 mg/kg dosage group) | time to clonus ([1]; 36 mg/kg dosage group) | PTZ dose for the twitch component ([1]; 149 mg/kg dosage group, control 31.23) | time to twitch ([1]; 149 mg/kg dosage group) | PTZ dose for the clonus component ([1]; 149 mg/kg dosage group) | time to clonus ([1]; 149 mg/kg dosage group) | ED50 ([2]; listed as (1) (+) Enantiomer) | P.I. (protective index, TD50/ED50) ([2]; listed as (1) (+) Enantiomer) | P.I. (protective index, TD50/ED50) ([3]; listed as (1) (+) Enantiomer) | ED50 ([3]; Mus musculus, ip, read-out: ED50)
1 | CC(Nc1ccc(Cl)cc1)c1ccncc1 (single isomer, unassigned; (-)) [Compound 2, (-) N-(4-Chlorophenyl)-1-(4-pyridyl)ethylamine] | only in modest amounts | 25.8 mg/kg | > 19.4 | 60.3 mg/kg | 3.6 | – | – | – | – | – | – | – | – | – | – | –
2 | CC(Nc1ccc(Cl)cc1)c1ccncc1 (single isomer, unassigned; (+)) [Compound 1, (+) N-(4-Chlorophenyl)-1-(4-pyridyl)ethylamine] | significantly raised | – | – | – | – | 34.91 s | 46.84 mg/kg | 48.56 s | 33.31 mg/kg | 35.01 s | 74.13 mg/kg | 77.56 s | 10.2 mg/kg | > 49.1 | 4.2 | 35.9 mg/kg
